Experimental data published in patent US20250154169A1, “COMPOUNDS AND METHODS FOR MODULATING SPLICING” (REMIX THERAPEUTICS INC., priority 2021, published 2025).
pIC50: −log10 of the molar value.

Experiments:
HTT = experiment: Protein abundance, HiBit-assay system (Promega), HTT; type: cell-based; details: Table 6; HiBiT-modified K562 cells, 24 hours
Description: In some embodiments, a compound of Formula (I) or (II) or a pharmaceutically acceptable salt thereof, e.g., as described herein, modulates the expression of a target protein (e.g., HTT or MYB) in a reference cell or sample. In an embodiment, a compound of Formula (I) or (II) or a pharmaceutically acceptable salt thereof, e.g., as described herein, increases the expression of a target protein (e.g., HTT or MYB) in a reference cell or sample. In an embodiment, a compound of Formula (I) or (II) or a pharmaceutically acceptable salt thereof, e.g., as described herein, decreases the expression of a target protein (e.g., HTT or MYB) in a reference cell or sample. The effect of an exemplary compound of Formula (I) or (II) on protein abundance may be measured using a standard assay for measuring protein abundance, such as the HiBit-assay system (Promega). In this assay, percent response for each respective cell line may be as calculated at each compound concentration as follows: % response=100*(S−PC)/(NC−PC). For the normalized response at each concentration, a four-parameter logistical regression may be fit to the data and the response may be interpolated at the 50% value to determine a concentration for protein abundance at 50% (IC50) an untreated control. In an embodiment, a compound of Formula (I) or (II) or a pharmaceutically acceptable salt thereof, e.g., as described herein, has a protein abundance response less than 100 nM. In an embodiment, a compound of Formula (I) or (II) or a pharmaceutically acceptable salt thereof, e.g., as described herein, has a protein abundance response between 100-1000 nM. In an embodiment, a compound of Formula (I) or (II) or a pharmaceutically acceptable salt thereof, e.g., as described herein, has a protein abundance response greater than 1000 nM. In an embodiment, a compound of Formula (I) or (II) or a pharmaceutically acceptable salt thereof, e.g., as described herein, has a protein abundance response greater than 10 uM. In an embodiment, a compound of Formula (I) or (II) or a pharmaceutically acceptable salt thereof, e.g., as described herein, modulates the protein abundance of a target protein by about 1%, 5%, 10%, 15%, 20%, 25%, 30%, 35%, 40%, 45%, 50%, 55%, 60%, 65%, 70%, 75%, 80%, 85%, 90%, 95%, 99% or more, e.g., compared with a reference compound.

Target C = experiment: Protein abundance, HiBit-assay system (Promega), Target C; type: cell-based, human; details: Table 6; HiBiT-modified K562 cells, 24 hours
Experimental: Compounds described herein were used to screen for effects on quantitative protein abundance using a HiBit assay system (Promega). Quantitative protein abundance was determined by measuring the protein levels of HiBit-tagged protein targets expressed in cell culture via luminescence using the Nano-Glo HiBiT Lytic Detection System, which uses a split complementation assay format to reconstitute NanoBiT enzyme to generate a luminescent signal. A protein abundance assay was developed such that endogenous protein targets could be modified with the HiBiT peptide tag and their abundance could be assessed after compound treatment. Briefly, K562 cell lines containing a HiBiT-modification were treated with various compounds described herein (e.g., compounds of Formulas (I) or (II)). After treatment for 24 hours, the protein abundance of a specific target was determined by measuring luminescence.
Cells were maintained in EIDM with 10% FBS. Before the assay, cells were diluted with […] growth media (EIDM+1% FBS media) and were seeded in a 384-well plate at a density of 10000 cells/well (for each cell line listed in Table 5). Each compound was prepared as a 10-point 3-fold serial dilution in DMSO with the top dose at a final concentration of 10 μM in the well. Unmodified K562 cells were added at the previously specified density with DMSO to serve as an assay baseline and positive control (PC) and DMSO only with the respective modified cell lines was added to the negative control (NC) columns. Final DMSO concentration was kept at or below 0.25%. Treated cell plates were placed in an incubator at 37° C. with 5% CO2 for 24 hours. After 24 hours, 25 μL of Complete HiBit Lytic reagent was added to each well at room temperature (e.g. one plate requiring 10 mL Lytic Buffer, 100 μL LgBiT Protein, 200 μL Lytic Substrate), shaken for 5 minutes at 600 RPM, then left to sit for 10 minutes for signal to stabilize before reading on a Spark Cyto plate reader (Tecan) with a 500 ms measurement time.
To determine compound effects on protein abundance of each target in Table 6, the percent response for each respective cell line was calculated at each compound concentration as follows:
For the normalized response at each concentration, a four-parameter logistical regression was fit to the data and the response was interpolated at the 50% value to determine a concentration for protein abundance at […] the untreated control.

pIC50 (HTT)	pIC50 (Target C)	Compound
5.00 to 6.00	5.00 to 6.00	Cc1cn2cc(NC(=O)c3ccc(N4CC[C@@H](NC56CC(C5)C6)C4)c4cn(C)nc34)cc(F)c2n1 [Compound 568, 4-[(3R)-3-{bicyclo[1.1.1]pentan-1-ylamino}pyrrolidin-1-yl]-N-{8-fluoro-2-methylimidazo[1,2-a]pyridin-6-yl}-2-methylindazole-7-carboxamide]
5.00 to 6.00	< 5.00	CC1=CC2C(N3CCC(N(C)C)CC3)=CC=C(C(=O)Nc3cc(F)c4nc(C)cn4c3)C2O1 (centres unmarked) [Compound 198]
5.00 to 6.00	< 5.00	CCn1cc2c(N3CCNCC3)ccc(C(=O)Nc3cc(F)c4nc(C)c(F)n4c3)c2n1 [Compound 565, N-{3,8-difluoro-2-methylimidazo[1,2-a]pyridin-6-yl}-2-ethyl-4-(piperazin-1-yl) indazole-7-carboxamide; trifluoroacetic acid]
5.00 to 6.00	< 5.00	CCn1cc2c(N3CCNCC3)ccc(C(=O)Nc3cc(F)c4ncccc4c3)c2n1 [Compound 575]
6.00 to 7.00	5.00 to 6.00	Cc1cn2cc(NC(=O)c3c(F)cc(N4CC[C@@H](NC5CC5)C4)c4cn(C)nc34)cc(F)c2n1 [Compound 571, 4-[(3R)-3-(cyclopropylamino)pyrrolidin-1-yl]-6-fluoro-N-{8-fluoro-2-methylimidazo[1,2-a]pyridin-6-yl}-2-methylindazole-7-carboxamide]
6.00 to 7.00	5.00 to 6.00	Cc1cn2cc(NC(=O)c3ccc(N4CCNC(C)C4)c4cc(C)oc34)cc(F)c2n1 (centres unmarked) [Compound 190]
< 5.00	< 5.00	Cc1cn2cc(NC(=O)c3ccc(N4CCC(C)(NC(C)C)C4)c4cn(C)nc34)cc(F)c2n1 (centres unmarked) [Compound 574]
